How the values were obtained:
Assay in all cases: relative viability (nuclei count vs DMSO), 5 days (fraction); higher = more cells survive
[1] = compound: CCC1=CN=CN=C1N2CCN(CC2)CC3=NC4=C(N3)C=C(C=C4)C(F)(F)F + CC1(C)CCC(c2ccc(Cl)cc2)=C(CN2CCN(c3ccc(C(=O)NS(=O)(=O)c4ccc(N[C@H](CCN5CCOCC5)CSc5ccccc5)c(S(=O)(=O)C(F)(F)F)c4)cc3)CC2)C1 [Navitoclax] (partner 0.5 µM)
Outline: (§1)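 Cells from lung cancer lines were seeded into 1536-well plates and, one day later, dosed by pin tool. Treatments were either a single drug or a fixed dose of an anchor drug with five library-drug doses (not always all listed) in √10 steps. After 5 days, nuclei were stained in a one-step fixation (final 0.05% Triton X-100, 1% formaldehyde, 1 ug/ml Hoechst) and counted on 4× images, and relative viability is the treated-to-vehicle nuclei ratio, as the median of duplicate plates.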

[2] = compound: CCC1=CN=CN=C1N2CCN(CC2)CC3=NC4=C(N3)C=C(C=C4)C(F)(F)F + N=C(N)NC(=N)NCCc1ccccc1 [Phenformin] (partner 250 µM)
Outline: as §1

[3] = compound: CCn1c(-c2nonc2N)nc2cnc(Oc3cccc(NC(=O)c4ccc(OCCN5CCOCC5)cc4)c3)cc21 + CCNC(=O)c1noc(-c2cc(C(C)C)c(O)cc2O)c1-c1ccc(CN2CCOCC2)cc1 [Luminespib] (partner 0.01 µM)
Outline: as §1

[4] = compound: CCn1c(-c2nonc2N)nc2cnc(Oc3cccc(NC(=O)c4ccc(OCCN5CCOCC5)cc4)c3)cc21 + CC(=O)Nc1cccc(-n2c(=O)n(C3CC3)c(=O)c3c(Nc4ccc(I)cc4F)n(C)c(=O)c(C)c32)c1 [Trametinib] (partner 0.02 µM)
Outline: as §1

Cell Line	relative viability ([1]; first compound 0.04 µM)	relative viability ([1]; first compound 0.1265 µM)	relative viability ([1]; first compound 0.4 µM)	relative viability ([1]; first compound 1.265 µM)	relative viability ([1]; first compound 4 µM)	relative viability ([2]; first compound 0.04 µM)	relative viability ([2]; first compound 0.1265 µM)	relative viability ([2]; first compound 0.4 µM)	relative viability ([2]; first compound 1.265 µM)	relative viability ([2]; first compound 4 µM)	relative viability ([3]; first compound 0.04 µM)	relative viability ([3]; first compound 0.1265 µM)	relative viability ([3]; first compound 0.4 µM)	relative viability ([3]; first compound 1.265 µM)	relative viability ([3]; first compound 4 µM)	relative viability ([4]; first compound 0.04 µM)	relative viability ([4]; first compound 0.1265 µM)	relative viability ([4]; first compound 0.4 µM)	relative viability ([4]; first compound 1.265 µM)	relative viability ([4]; first compound 4 µM)
NCI-H1355	0.987	0.919	0.903	0.806	0.973	0.456	0.428	0.406	0.395	0.424	0.744	0.742	0.672	0.759	0.797	0.322	0.433	0.434	0.392	0.398
NCI-H1666	0.975	0.836	0.962	0.817	0.846	0.569	0.551	0.52	0.555	0.594	1.2	1.24	1.27	0.907	0.478	0.95	1.09	0.851	0.582	0.528
EPLC-272H	0.973	1.05	1.11	1.07	1.31	0.308	0.333	0.299	0.325	0.337	0.263	0.697	0.265	0.26	0.286	0.365	0.347	0.256	0.213	0.197
ChaGo-K-1		1	0.927	0.936	0.942	0.462	0.5	0.409	0.443	0.482	0.586	0.691	0.706	0.48	0.454	1.06	0.928	0.844	0.89	0.866
NCI-H1651	1.06	0.875	1.04	0.941	1.01	0.369	0.321	0.308	0.332	0.375	0.843	1.14	0.71	0.689	0.491	0.925	0.891	0.828	0.623	0.81
NCI-H2087	1.03	0.982	0.914	0.871	0.723	0.499	0.465	0.448	0.467	0.496	0.161	0.143	0.181	0.153	0.143	0.209	0.293	0.203	0.228	0.231
